The record followed here is publication PMC7534330, “UHPLC-MS/MS method for pharmacokinetic and bioavailability determination of five bioactive components in raw and various processed products of Polygala tenuifolia in rat plasma” (Pharmaceutical Biology, 2020).

Read-outs that look alike come from different tables or passages of the source.

Usually AUC(0-inf) stands for the area under the concentration-time curve extrapolated to infinity. Read a high AUC(0-inf) as more exposure. The term AUC(0-t) denotes exposure summed from dosing to a finite time, without extrapolation to infinity. High values mean more exposure, low ones less exposure. As a reminder, the Cmax is the peak of the concentration-time curve. A word on the Tmax: it is the time at which the peak concentration occurs.

A short description of this series: Pharmacokinetics and absolute bioavailability of five compounds after oral and i.v. administration (UHPLC-MS/MS). In kind it is in vivo. To be noted: rat; for MRT last: read-out: MRT0-t; for half-life: read-out: t1/2 (converted); for AUCΔ0-t (dose-normalized) / AUCΔ0-∞ (dose-normalized) / CΔmax (dose-normalized): dose-normalized value. On the procedure: A Thermo Hypersil Gold C18 column (3.0 × 100 mm, i.d.; 3 μm) was used for chromatographic separation. An aqueous 10 mM ammonium acetate solution (A) and acetonitrile (B) were selected as the mobile phase components. The optimal gradient program involved the following steps: 5% B (0–1 min), changing to 85% B (1–3.5 min), 85% B (3.5–4.0 min), changing to 5% B (4.0–4.1 min) and 5% B (4.1–5.0 min). The flow rate was set to 0.4 mL/min, the autosampler was maintained at 4 °C and the injection volume was 5 μL.
UHPLC-MS/MS was conducted by an Applied Biosystems (AB) Sciex Exion LC system (Foster City, CA) connected to a 6500 + triple quad tandem mass spectrometer with an electrospray ionization source. All detection and quantifications were carried out in positive multiple reaction monitoring (MRM) mode. The optimized parameters were programmed as follows: ion source temperature, 500 °C; curtain gas pressure, 30 kPa; ion source gas 1 pressure, 55 kPa; ion source gas 2 pressure, 55 kPa; and ion spray voltage, […]. The chemical structures and ion mass spectra of targeted compounds are shown in Figure 1. The precursor ion and product ion were m/z 517.1 → 174.9 for A5, m/z 547.0 → 204.9 for A6, m/z 753.2 → 205.2 for DSS, m/z 681.3 → 443.3 for TFSA, m/z 236.8 → 103.2 for TMCA and m/z 136.9 → 92.9 for IS. All data were acquired by using AB Sciex Analyst software (version 1.6.3).
After thawing the frozen blood samples at room temperature, a 100 μL aliquot of plasma was spiked with 50 μL of the IS working solution in 2 mL EP tubes, and 750 μL of methanol was added into each of the tubes. Then, these tubes were mixed on a multi-tube Vortexer for 0.5 min before centrifugation at 11,800×g for 10 min. Finally, 200 μL of the obtained supernatant was transferred to a fresh autosampler vial, and then 5 μL of the sample was injected for analysis.
The SD rats were randomly divided into oral and i.v. groups for A5, A6, DSS, TFSA and TMCA administration (n = 6 in each group). The oral doses of A5, A6, DSS, TFSA and TMCA groups were 7.40, 11.60, 16.00, 50.00 and 3.11 mg/kg, respectively, and the corresponding i.v. doses were 0.74, 1.16, 1.60, 5.00 and 0.31 mg/kg, respectively. Blood samples were collected from the suborbital vein into heparinized tubes before and 0, 0.083, 0.17, 0.25, 0.5, 1, 2, 3, 5 and 8 h after administration. The treatment method of blood samples was the same as that mentioned above.
The elementary pharmacokinetic parameters of plasma samples were analyzed by DAS 2.0 pharmacokinetic software. One-way analysis of variance (ANOVA) was used for statistical comparison for pharmacokinetic and interaction studies. A p-value < 0.05 indicated a significant difference. The main parameters considered were as follows: AUC0–∞ (the area under the blood concentration-time curve from zero to infinity initial plasma concentration), MRT (the mean residence time), Cmax (peak plasma concentration) and Tmax (time to reach Cmax for oral dose), t1/2 (elimination half-life) (He et al. [2015]). The absolute bioavailability (F) was evaluated as follows: F(%)=(AUCoral×Dosei.v.)/(AUCi.v.×Doseoral)×100%

[1] abbreviates: SD, in vivo, iv, i.v. administration, A5 0.74, A6 1.16, DSS 1.60, TFSA 5.00, TMCA 0.31 mg/kg, n = 6.
Where [2] appears, read: SD, in vivo, oral administration of pure compound, A5 7.40, A6 11.60, DSS 16.00, TFSA 50.00, TMCA 3.11 mg/kg, n = 6.

Turning to `COc1cc(C=CC(=O)O)cc(OC)c1OC` [TMCA, 3,4,5-trimethoxycinnamic acid], under setting [1], the AUC(0-inf) was 226 ± 61.2 ng·h/mL, the AUC(0-t) was 225 ± 60.9 ng·h/mL, the maximum concentration (Cmax) is 1470 ± 238 ng/mL and the MRT last was determined as 15 ± 3.6 min. Further, the half-life under setting [1] is 37.2 ± 7.8 min. Besides, under setting [2], the AUC(0-inf) was 971 ± 59.8 ng·h/mL, the AUC(0-t) was 968 ± 58.4 ng·h/mL, the peak level (Cmax) was 1110 ± 90.5 ng/mL and the MRT last was 40.8 ± 1.8 min. Under setting [2], the half-life was 39 ± 1.2 min. The Tmax (SD, in vivo, oral administration of pure compound, A5 7.40, A6 11.60, DSS 16.00, TFSA 50.00, TMCA 3.11 mg/kg, n = 6, read-out: Tmax) came out at 15 min. For the same molecule, under “i.v. administration”, the “AUCΔ0-t (dose-normalized)” value was 725.52 ± 196.42 ng·h/mL, the “AUCΔ0-∞ (dose-normalized)” value stood at 730.65 ± 197.45 ng·h/mL and the “CΔmax (dose-normalized)” value is listed as 4750.32 ± 768.32 ng/mL. Besides, for the setting “oral administration”, the “AUCΔ0-t (dose-normalized)” value came out at 311.40 ± 18.78 ng·h/mL, the “AUCΔ0-∞ (dose-normalized)” value is 312.32 ± 19.23 ng·h/mL and the “CΔmax (dose-normalized)” value worked out at 356.33 ± 29.10 ng/mL. The “F, absolute bioavailability” value (oral vs i.v. (i.v. dose 1/10 of oral dose)) was 42.91 % of dose.
